Measured values taken from paper PMC11055985, “Metochalcone induces senescence-associated secretory phenotype via JAK2/STAT3 pathway in breast cancer” (Oncology Research, 2024).

Target: STAT3 (Homo sapiens, UniProt P40763)
Assay: microscale thermophoresis (MST) with His-tag-labelled purchased STAT3 protein (ACROBiosystems ST3-H5149)
Type: binding

Chain of STAT3 (P40763 2-770): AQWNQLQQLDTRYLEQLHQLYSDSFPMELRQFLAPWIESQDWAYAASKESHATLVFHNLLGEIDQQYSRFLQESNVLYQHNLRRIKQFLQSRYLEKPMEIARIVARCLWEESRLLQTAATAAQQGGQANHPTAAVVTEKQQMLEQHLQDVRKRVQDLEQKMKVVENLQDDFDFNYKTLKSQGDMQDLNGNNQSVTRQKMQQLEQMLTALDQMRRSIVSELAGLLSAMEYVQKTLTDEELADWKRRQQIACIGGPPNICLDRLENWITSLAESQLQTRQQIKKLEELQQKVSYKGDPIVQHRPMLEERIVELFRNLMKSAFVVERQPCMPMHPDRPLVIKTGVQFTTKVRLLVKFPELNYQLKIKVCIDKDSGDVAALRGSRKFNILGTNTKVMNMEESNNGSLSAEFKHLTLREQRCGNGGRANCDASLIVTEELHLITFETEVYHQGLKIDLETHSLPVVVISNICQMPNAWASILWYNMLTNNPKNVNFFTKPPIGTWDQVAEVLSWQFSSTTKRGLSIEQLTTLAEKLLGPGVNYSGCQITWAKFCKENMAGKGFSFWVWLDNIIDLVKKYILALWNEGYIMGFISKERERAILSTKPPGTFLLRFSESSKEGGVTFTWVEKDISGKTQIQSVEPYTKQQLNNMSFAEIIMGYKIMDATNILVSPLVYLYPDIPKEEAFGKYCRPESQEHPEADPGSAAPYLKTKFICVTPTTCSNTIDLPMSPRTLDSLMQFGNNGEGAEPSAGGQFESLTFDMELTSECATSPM

How did the Kd turn out when `COc1ccc(/C=C/C(=O)c2ccc(OC)cc2OC)cc1` [TEC, 2', 4, 4'-trimethoxychalcone] was run?
Its Kd is 9.85 µM.
